Results published in EP0458892B1, “USE OF CHLORMETHIAZOLE IN THE MANUFACTURE OF A MEDICAMENT FOR THE PREVENTION AND/OR TREATMENT OF NEURODEGENERATION” (priority 1989, dated 1990).

How the values were obtained:
[1] = tested on: CA1/CA2 hippocampal neurones; assay: Gerbil carotid occlusion ischaemia, test compound administered following induction of ischaemia; type: in vivo; conditions: gerbils; for % Damage to CA1/CA2 Hippocampal Neurones: assessed after 4 days
Description: (§1) The detailed mechanisms that underlie ischaemia-induced degeneration of hippocampal neurones have yet to be clarified, but the above mentioned gerbil test system has been widely used as a predictive model of neuroprotective activity (see, for example, B.J. Alps, C. Calder, W.K. Hass and A.D. Wilson, Brit. J. Pharmacol., 1988, 93, 877-883; R. Gill, A.C. Foster and G.N. Woodruff, J. Neuroscience, 1987, 7, 3343-3349).
(§2) Ischaemia was induced in gerbils by occlusion of the carotid arteries following the accepted general procedure as described in, for example, EP 230 370 and R. Gill, A.C. Foster and G.N. Woodruff, J. Neuroscience, 1987, 7, 3343-3349.
(§3) Ischaemia was induced in gerbils by 10 minute occlusion of both carotid arteries. Restoration of blood flow after occlusion was checked visually and the animals were allowed to survive for 4 days. The extent of neuronal degeneration in the hippocampus was then assessed. The test compounds were administered (i.p.) as a single dose 30 minutes prior to occlusion.
The general procedure described in (a) above was followed except that the test compound was administered (i.p.) as a single dose at the stated time following the end of the occlusion. No administration was made prior to the occlusion.

[2] = tested on: CA1/CA2 hippocampal neurones; assay: Gerbil carotid occlusion ischaemia, test compound administered prior to induction of ischaemia; type: in vivo; conditions: gerbils; for % Damage to CA1/CA2 Hippocampal Neurones: assessed after 4 days
Description: as §1, §2, §3

Cc1ncsc1CCCl [Chlormethiazole ethanedisulphonate]
% Damage to CA1/CA2 Hippocampal Neurones ([1]; 50mg/kg i.p. single dose 30 minutes after the end of 10 minute occlusion): 69.4 ± 6.9%
% Damage to CA1/CA2 Hippocampal Neurones ([1]; 100mg/kg i.p. single dose 30 minutes after the end of 10 minute occlusion): 12.8 ± 10.4%
% Damage to CA1/CA2 Hippocampal Neurones ([1]; 100mg/kg i.p. single dose 1 hour after the end of 10 minute occlusion): 14.3 ± 8.7%
% Damage to CA1/CA2 Hippocampal Neurones ([1]; 100mg/kg i.p. single dose 2 hours after the end of 10 minute occlusion): 7.25 ± 4.8%
% Damage to CA1/CA2 Hippocampal Neurones ([1]; 100mg/kg i.p. single dose 6 hours after the end of 10 minute occlusion): 45.6 ± 14%
% Damage to CA1/CA2 Hippocampal Neurones ([2]; 50mg/kg i.p. single dose 30 minutes prior to 10 minute occlusion of both carotid arteries): 37.6 ± 13.4%
% Damage to CA1/CA2 Hippocampal Neurones ([2]; 100mg/kg i.p. single dose 30 minutes prior to 10 minute occlusion of both carotid arteries): < 5%

Cc1ncsc1CCCl [chlormethiazole, 5-(2-chloroethyl)-4-methylthiazole]
damage to the CA1/CA2 hippocampal neurones (result in words) ([1]; i.p. single dose after the ischaemic insult, summary of Table 2): effective in reducing the damage to the CA1/CA2 hippocampal neurones
damage to the CA1/CA2 hippocampal neurones (result in words) ([2]; i.p. single dose 30 minutes prior to occlusion, summary of Table 1): effective in reducing the damage to the CA1/CA2 hippocampal neurones

C[C@]12N[C@H](Cc3ccccc31)c1ccccc12 [MK 801]
% Damage to CA1/CA2 Hippocampal Neurones ([2]; 3mg/kg i.p. single dose 30 minutes prior to 10 minute occlusion of both carotid arteries): < 5%

CC(C(O)c1ccc(O)cc1)N1CCC(Cc2ccccc2)CC1 (centres unmarked) [Ifenprodil]
% Damage to CA1/CA2 Hippocampal Neurones ([2]; 4mg/kg i.p. single dose 30 minutes prior to 10 minute occlusion of both carotid arteries): 62 ± 8.0%
